From PubChem BioAssay (NCI)
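Method: 48-hour compound exposure of cells in 96-well plates, five concentrations, linear interpolation of endpoints. Definition used: TGI = concentration required for complete inhibition of growth.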

Assays:
Assay in all cases: NCI-60 cell line screen, 48 h
SK-MEL-2 melanoma = system: SK-MEL-2 melanoma
SW-620 colon = system: SW-620 colon
NCI-H23 lung = system: NCI-H23 lung
NCI/ADR-RES ovarian = system: NCI/ADR-RES ovarian
HS 578T breast = system: HS 578T breast
SK-MEL-5 melanoma = system: SK-MEL-5 melanoma
SR leukemia = system: SR leukemia
MDA-MB-231 breast = system: MDA-MB-231 breast
UO-31 renal = system: UO-31 renal
HT29 colon = system: HT29 colon
RXF 393 renal = system: RXF 393 renal
PC-3 prostate = system: PC-3 prostate
CCRF-CEM leukemia = system: CCRF-CEM leukemia
U251 CNS = system: U251 CNS
LOX IMVI melanoma = system: LOX IMVI melanoma
HCT-15 colon = system: HCT-15 colon
786-0 renal = system: 786-0 renal
SF-268 CNS = system: SF-268 CNS
CAKI-1 renal = system: CAKI-1 renal
NCI-H460 lung = system: NCI-H460 lung
OVCAR-4 ovarian = system: OVCAR-4 ovarian
HOP-62 NSCLC = system: HOP-62 NSCLC
MCF7 breast = system: MCF7 breast
SN12C renal = system: SN12C renal
T-47D breast = system: T-47D breast
UACC-62 melanoma = system: UACC-62 melanoma
BT-549 breast = system: BT-549 breast
SK-MEL-28 melanoma = system: SK-MEL-28 melanoma
OVCAR-3 ovarian = system: OVCAR-3 ovarian
DU-145 prostate = system: DU-145 prostate
SF-295 CNS = system: SF-295 CNS
HCC-2998 colon = system: HCC-2998 colon
COLO 205 colon = system: COLO 205 colon
M14 melanoma = system: M14 melanoma
HOP-92 NSCLC = system: HOP-92 NSCLC
OVCAR-8 ovarian = system: OVCAR-8 ovarian
SK-OV-3 ovarian = system: SK-OV-3 ovarian
TK-10 renal = system: TK-10 renal
EKVX NSCLC = system: EKVX NSCLC
HCT-116 colon = system: HCT-116 colon
MDA-N = system: MDA-N
SNB-19 CNS = system: SNB-19 CNS
NCI-H522 lung = system: NCI-H522 lung
ACHN renal = system: ACHN renal
A549 NSCLC = system: A549 NSCLC
K-562 leukemia = system: K-562 leukemia
RPMI-8226 leukemia = system: RPMI-8226 leukemia
KM12 colon = system: KM12 colon
MOLT-4 leukemia = system: MOLT-4 leukemia
A498 renal = system: A498 renal
SNB-75 CNS = system: SNB-75 CNS
UACC-257 melanoma = system: UACC-257 melanoma
SF-539 CNS = system: SF-539 CNS
MDA-MB-435 = system: MDA-MB-435
HL-60(TB) leukemia = system: HL-60(TB) leukemia
OVCAR-5 ovarian = system: OVCAR-5 ovarian
NCI-H226 lung = system: NCI-H226 lung
IGROV1 ovarian = system: IGROV1 ovarian
MALME-3M melanoma = system: MALME-3M melanoma

COc1ccc(/C=C/C(=O)N[C@@H]2C(=O)N3[C@@H]2SC(C)(C)[C@@H]3C(=O)O)cc1OC
TGI (SK-MEL-2 melanoma): > 100 µM | TGI (SW-620 colon): > 100 µM | TGI (NCI-H23 lung): > 100 µM | TGI (NCI/ADR-RES ovarian): > 100 µM | TGI (HS 578T breast): > 100 µM | TGI (SK-MEL-5 melanoma): > 100 µM | TGI (SR leukemia): > 100 µM | TGI (MDA-MB-231 breast): > 100 µM | TGI (UO-31 renal): > 100 µM | TGI (HT29 colon): > 100 µM | TGI (RXF 393 renal): > 100 µM | TGI (PC-3 prostate): > 100 µM | TGI (CCRF-CEM leukemia): > 100 µM | TGI (U251 CNS): > 100 µM | TGI (LOX IMVI melanoma): > 100 µM | TGI (HCT-15 colon): > 100 µM | TGI (786-0 renal): > 100 µM | TGI (SF-268 CNS): > 100 µM | TGI (CAKI-1 renal): > 100 µM | TGI (NCI-H460 lung): > 100 µM | TGI (OVCAR-4 ovarian): > 100 µM | TGI (HOP-62 NSCLC): > 100 µM | TGI (MCF7 breast): > 100 µM | TGI (SN12C renal): > 100 µM | TGI (T-47D breast): > 100 µM | TGI (UACC-62 melanoma): > 100 µM | TGI (BT-549 breast): > 100 µM | TGI (SK-MEL-28 melanoma): > 100 µM | TGI (OVCAR-3 ovarian): > 100 µM | TGI (DU-145 prostate): > 100 µM | TGI (SF-295 CNS): > 100 µM | TGI (HCC-2998 colon): > 100 µM | TGI (COLO 205 colon): > 100 µM | TGI (M14 melanoma): > 100 µM | TGI (HOP-92 NSCLC): > 100 µM | TGI (OVCAR-8 ovarian): > 100 µM | TGI (SK-OV-3 ovarian): > 100 µM | TGI (TK-10 renal): > 100 µM | TGI (EKVX NSCLC): > 100 µM | TGI (HCT-116 colon): > 100 µM | TGI (MDA-N): > 100 µM | TGI (SNB-19 CNS): > 100 µM | TGI (NCI-H522 lung): > 100 µM | TGI (ACHN renal): > 100 µM | TGI (A549 NSCLC): > 100 µM | TGI (K-562 leukemia): > 100 µM | TGI (RPMI-8226 leukemia): > 100 µM | TGI (KM12 colon): > 100 µM | TGI (MOLT-4 leukemia): > 100 µM | TGI (A498 renal): > 100 µM | TGI (SNB-75 CNS): > 100 µM | TGI (UACC-257 melanoma): > 100 µM | TGI (SF-539 CNS): > 100 µM | TGI (MDA-MB-435): > 100 µM | TGI (HL-60(TB) leukemia): > 100 µM | TGI (OVCAR-5 ovarian): > 100 µM | TGI (NCI-H226 lung): > 100 µM

CC(=O)SC(C[N+](=O)[O-])c1ccccc1 (stereo unspecified)
TGI (SK-MEL-2 melanoma): 50.3 µM | TGI (SW-620 colon): 5.6 µM | TGI (NCI-H23 lung): 38.3 µM | TGI (NCI/ADR-RES ovarian): 55.1 µM | TGI (HS 578T breast): 23.4 µM | TGI (SK-MEL-5 melanoma): 8.77 µM | TGI (SR leukemia): 6.85 µM | TGI (MDA-MB-231 breast): 27 µM | TGI (UO-31 renal): 5.37 µM | TGI (HT29 colon): 4.22 µM | TGI (RXF 393 renal): 4.01 µM | TGI (PC-3 prostate): 25.7 µM | TGI (CCRF-CEM leukemia): 19.9 µM | TGI (U251 CNS): 13.1 µM | TGI (LOX IMVI melanoma): 3.34 µM | TGI (HCT-15 colon): 4.85 µM | TGI (786-0 renal): 23.7 µM | TGI (SF-268 CNS): 22.6 µM | TGI (CAKI-1 renal): 29.3 µM | TGI (NCI-H460 lung): 24.8 µM | TGI (OVCAR-4 ovarian): 5.46 µM | TGI (HOP-62 NSCLC): 33 µM | TGI (MCF7 breast): 4.35 µM | TGI (SN12C renal): 27.3 µM | TGI (T-47D breast): > 71.3 µM | TGI (UACC-62 melanoma): 28.5 µM | TGI (BT-549 breast): 5.19 µM | TGI (SK-MEL-28 melanoma): 11.1 µM | TGI (OVCAR-3 ovarian): 20.7 µM | TGI (DU-145 prostate): > 46.7 µM | TGI (SF-295 CNS): 15.9 µM | TGI (HCC-2998 colon): 10.6 µM | TGI (COLO 205 colon): 7.47 µM | TGI (M14 melanoma): 17.2 µM | TGI (HOP-92 NSCLC): 30.4 µM | TGI (OVCAR-8 ovarian): 26 µM | TGI (IGROV1 ovarian): 5.02 µM | TGI (SK-OV-3 ovarian): 26.2 µM | TGI (TK-10 renal): 23.6 µM | TGI (EKVX NSCLC): 16 µM | TGI (HCT-116 colon): 4.48 µM | TGI (MDA-N): 9.77 µM | TGI (SNB-19 CNS): 30.9 µM | TGI (NCI-H522 lung): 31 µM | TGI (ACHN renal): 8.94 µM | TGI (A549 NSCLC): 14 µM | TGI (K-562 leukemia): 12.8 µM | TGI (RPMI-8226 leukemia): 5.18 µM | TGI (KM12 colon): 22.6 µM | TGI (MOLT-4 leukemia): 5.36 µM | TGI (A498 renal): 20.7 µM | TGI (SNB-75 CNS): 7.65 µM | TGI (UACC-257 melanoma): 24.5 µM | TGI (SF-539 CNS): 5.26 µM | TGI (MDA-MB-435): 6.08 µM | TGI (HL-60(TB) leukemia): 18.9 µM | TGI (MALME-3M melanoma): 35.9 µM | TGI (OVCAR-5 ovarian): 9.11 µM | TGI (NCI-H226 lung): 5.72 µM
